Reference: patent publication US6528525B1, “Amidocarboxylic acid derivatives” (Sankyo Company, Limited, priority 1998, dated 2003)

test system: hyperglycemic male KK mice; experiment: Action in depressing blood glucose (Method 1); assay type: in vivo; settings: Mus musculus, po, 72 h, compound admixed with powder feed at 0.01% (ca. 10 mg/kg/day) for three days, plasma glucose vs control group, read-out: Rate of hypoglycemic activity (%) (blood glucose depression rate)
Method: Action in Depressing Blood Glucose (Method 1)
Each compound, admixed with powder feed F-2 (Funabashi Farm) was administered to hyperglycemic male KK mice each having a body weight of 40 g or more at a rate of 0.01% (ca. 10 mg/kg/day) for three days. Meanwhile, mice of a control group were fed with the powder feed only. Then, a blood sample was collected from the caudal vein of each mouse under no anesthesia and centrifuged. The blood glucose in the plasma thus obtained was determined using Glucoloader F (Product of A & T Co., Ltd.).
The blood glucose depression rate were estimated from the following equation:
Blood glucose depression rate (%)=[(Blood glucose in Control group−Blood glucose in administered group)/Blood glucose in Control group]×100

SMILES | inhibition in vivo at 10 mg/kg/day [%]
O=C(NCCOc1ccc(CC(Oc2ccccc2)C(=O)O)cc1)c1ccc(-c2ccccc2)cc1 (stereo not shown) [Example 76, 3-[4-[2-(Biphenyl-4-carbonylamino)ethoxy]phenyl]-2-phenoxypropionic acid] | 50
O=C(NCCOc1ccc(CC(Oc2cc(F)cc(F)c2)C(=O)O)cc1)c1ccc(-c2ccccn2)cc1 (stereo not shown) [Example 139, 2-(3,5-Difluorophenoxy)-3-[4-[2-(4-pyridine-2-ylbenzoylamino)ethoxy]phenyl]propionic acid] | 23
CC(Cc1ccc(OCCNC(=O)c2ccc(-c3ccccn3)cc2)cc1)(Oc1ccccc1)C(=O)O (stereo not shown) [Example 16, 2-Methyl-2-phenoxy-3-[4-[2-(4-pyridine-2-ylbenzoylamino)ethoxy]phenyl]propionic acid] | 64
O=C(NCCOc1ccc(CC(Oc2ccccc2)C(=O)O)cc1)c1ccc(-c2ccc(Cl)cc2)cc1 (stereo not shown) [Example 80, 3-[4-[2-(4′-Chlorobiphenyl-4-carbonylamino)ethoxy]phenyl]-2-phenoxypropionic acid] | 50
COc1ccc(OC(Cc2ccc(OCCNC(=O)c3ccc(-c4ccccn4)cc3)cc2)C(=O)O)cc1 (stereo not shown) [Example 125, 2-(4-Methoxyphenoxy)-3-[4-[2-(4-pyridine-2-ylbenzoylamino)ethoxy]phenyl]propionic acid] | 54
CC(C)c1ccc(OC(Cc2ccc(OCCNC(=O)c3ccc(-c4ccc(F)cc4)nc3)cc2)C(=O)O)cc1 (stereo not shown) [Example 101, 3-[4-[2-[2-(4-Fluorophenyl)pyridine-5-carbonylamino]ethoxy]phenyl]-2-(4-isopropylphenoxy)propionic acid] | 51
CCCCC(Cc1ccc(OCCNC(=O)c2ccc(-c3ccccc3)cc2)cc1)C(=O)O (stereo not shown) [Example 22, 3-[4-[2-(Biphenyl-4-carbonylamino)ethoxy]phenyl]-2-butylpropionic acid] | 17
CC(C)(C)c1ccc(OC(Cc2ccc(OCCNC(=O)c3ccc(-c4ccccn4)cc3)cc2)C(=O)O)cc1 (stereo not shown) [Example 117, 2-(4-t-Butylphenoxy)-3-[4-[2-(4-pyridine-2-ylbenzoylamino)ethoxy]phenyl]propionic acid] | 70
O=C(NCCOc1ccc(CC(Oc2ccc(Cl)cc2)C(=O)O)cc1)c1ccc(-c2ccccn2)cc1 (stereo not shown) [Example 121, 2-(4-Chlorophenoxy)-3-[4-[2-(4-pyridine-2-ylbenzoylamino)ethoxy]phenyl]propionic acid] | 60
COc1ccc(-c2ccc(C(=O)NCCOc3ccc(CC(Oc4ccc(C(C)C)cc4)C(=O)O)cc3)cn2)cc1 (stereo not shown) [Example 99, 2-(4-Isopropylphenoxy)-3-[4-[2-[2-(4-methoxyphenyl)pyridine-5-carbonylamino]ethoxy]phenyl]propionic acid] | 57
COc1ccc(-c2ccc(C(=O)NCCOc3ccc(CC(Oc4ccc(C(C)C)cc4)C(=O)O)cc3)cc2)nc1 (stereo not shown) [Example 111, 2-(4-Isopropylphenoxy)-3-[4-[2-[4-(3-methoxypyridine-6-yl)-benzoylamino]ethoxy]phenyl]propionic acid] | 70
CC(C)c1ccc(OC(Cc2ccc(OCCNC(=O)c3ccc(-c4ccc(N(C)C)cn4)cc3)cc2)C(=O)O)cc1 (stereo not shown) [Example 113, 3-[4-[2-[4-(3-Dimethylaminopyridine-6-yl)benzoylamino]ethoxy]-phenyl]-2-(4-isopropylphenoxy)propionic acid] | 64
O=C(NCCOc1ccc(CC(Oc2cccc(F)c2)C(=O)O)cc1)c1ccc(-c2ccccn2)cc1 (stereo not shown) [Example 137, 2-(3-Fluorophenoxy)-3-[4-[2-(4-pyridine-2-ylbenzoylamino)ethoxy]phenyl]propionic acid] | 49
CCCCC(Cc1ccc(OCCNC(=O)c2ccc(-c3ccc(CN(C)C)cc3)cc2)cc1)C(=O)O (stereo not shown) [Example 29, 2-Butyl-3-[4-[2-(4′-dimethylaminomethylbiphenyl-4-carbonyl-amino)ethoxy]phenyl]propionic acid] | 20
CCCCC(Cc1ccc(OCCNC(=O)c2ccc(OC)nc2)cc1)C(=O)O (stereo not shown) [Example 52, 2-Butyl-3-[4-[2-(2-methoxypyridine-5-carbonylamino)ethoxy]phenyl]propionic acid] | 20
O=C(NCCOc1ccc(CC(CCCc2ccccc2)C(=O)O)cc1)c1ccc(-c2ccccn2)cc1 (stereo not shown) [Example 4, 2-(3-phenylpropyl)-3-[4-[2-(4-pyridine-2-ylbenzoylamino)ethoxy]phenyl]propionic acid] | 15
CCCCC(Cc1ccc(OCCNC(=O)c2ccc(-c3ccc(C(=O)O)cc3)cc2)cc1)C(=O)O (stereo not shown) [Example 30, 2-Butyl-3-[4-[2-(4′-carboxybiphenyl-4-carbonylamino)ethoxy]phenyl]propionic acid] | 18
O=C(NCCOc1ccc(CC(Oc2ccc(F)c(F)c2)C(=O)O)cc1)c1ccc(-c2ccccn2)cc1 (stereo not shown) [Example 141, 2-(3,4-Difluorophenoxy)-3-[4-[2-(4-pyridine-2-ylbenzoylamino)ethoxy]phenyl]propionic acid] | 27

same assay, conditions: compound admixed with powder feed at 0.01% (ca. 10 mg/kg/day) for three days, plasma glucose vs control group

SMILES | Rate of hypoglycemic activity (%) (blood glucose depression rate)
O=C(NCCOc1ccc(CC(Oc2ccccc2)C(=O)O)cc1)c1ccc(-c2ccccn2)cc1 (stereo not shown) [Example 8, 2-Phenoxy-3-[4-[2-(4-pyridine-2-ylbenzoylamino)ethoxy]phenyl]propioric acid] | 22
